Counter-ions that a name gives are not always drawn.
Biological target: T1, Recombinant Human SSAO/VAP-1/AOC3 (Homo sapiens, UniProt Q16853)
T1 construct: purchased R&D systems 3957-AO
T1 sequence (Q16853 1-763): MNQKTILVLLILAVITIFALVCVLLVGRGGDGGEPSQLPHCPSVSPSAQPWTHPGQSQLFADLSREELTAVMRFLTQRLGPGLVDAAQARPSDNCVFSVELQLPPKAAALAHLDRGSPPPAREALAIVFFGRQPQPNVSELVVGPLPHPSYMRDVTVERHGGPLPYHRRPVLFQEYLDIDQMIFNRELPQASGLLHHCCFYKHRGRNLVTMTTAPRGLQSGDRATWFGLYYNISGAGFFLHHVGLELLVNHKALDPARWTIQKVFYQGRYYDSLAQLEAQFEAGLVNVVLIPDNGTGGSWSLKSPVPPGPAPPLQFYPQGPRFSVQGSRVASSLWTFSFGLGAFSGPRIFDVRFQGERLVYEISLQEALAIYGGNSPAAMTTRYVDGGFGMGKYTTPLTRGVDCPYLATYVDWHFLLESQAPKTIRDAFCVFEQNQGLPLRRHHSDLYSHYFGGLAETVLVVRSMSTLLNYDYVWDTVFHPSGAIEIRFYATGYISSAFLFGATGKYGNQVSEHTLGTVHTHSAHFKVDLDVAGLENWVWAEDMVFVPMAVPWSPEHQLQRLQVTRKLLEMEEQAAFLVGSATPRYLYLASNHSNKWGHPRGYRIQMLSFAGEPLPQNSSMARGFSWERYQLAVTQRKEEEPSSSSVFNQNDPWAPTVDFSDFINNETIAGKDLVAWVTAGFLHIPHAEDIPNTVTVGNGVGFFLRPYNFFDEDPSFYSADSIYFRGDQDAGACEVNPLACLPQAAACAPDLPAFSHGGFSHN
Experiment: Human Semicarbazide-Sensitive Amine Oxidase (SSAO) Assay
Type: biochemical
Conditions: recombinant enzyme, 30 minutes preincubation at 37° C., benzylamine substrate, Amplex Ultra Red/HRP fluorescence
How it was run: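 Recombinant human SSAO/VAP-1 (2.5 μg/ml working stock in 50 mM HEPES) preincubated with compound 30 min at 37 °C over a 6-10 point CRC. Benzylamine substrate starts the reaction. H2O2 read kinetically over 30-120 min via Amplex Ultra Red/HRP fluorescence (ex 544/em 590 nm) to derive IC50.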

Compound | IC50 [nM]
CNC(=O)COC12CCC(c3ccc(OC/C(=C/F)CN)cc3)(CC1)CC2 [Compound 8, (E)-2-((4-(4-((2-(aminomethyl)-3-fluoroallyl)oxy)phenyl)bicyclo[2.2.2]octan-1-yl)oxy)-N-methylacetamide] | ≤ 10
NC/C(=C\F)COc1ccc(C23CCC(OCC(=O)NC4CCOCC4)(CC2)CC3)cc1 [Compound 8.01, (E)-2-((4-(4-((2-(aminomethyl)-3-fluoroallyl)oxy)phenyl)bicyclo [2.2.2]octan-1-yl)oxy)-N-(tetrahydro-2H-pyran-4-yl)acetamide] | ≤ 10
NC/C(=C\F)COc1ccc(C23CCC(OCC(=O)N4CCOCC4)(CC2)CC3)cc1 [Compound 8.02, (E)-2-((4-(4-((2-(aminomethyl)-3-fluoroallyl)oxy)phenyl)bicyclo [2.2.2]octan-1-yl)oxy)-1-morpholinoethanone] | ≤ 10
COCCOC12CCC(c3ccc(OC/C(=C/F)CN)cc3)(CC1)CC2 [Compound 8.03, (E)-3-Fluoro-2-((4-(4-(2-methoxyethoxy)bicyclo[2.2.2]octan-1-yl)phenoxy)methyl)prop-2-en-1-amine Hydrochloride] | ≤ 10
NC/C(=C\F)CNc1ccc(C23CCC(C(=O)NC4CCOCC4)(CC2)CC3)cc1 [Compound 9, (E)-4-(4-((2-(Aminomethyl)-3-fluoroallyl)amino)phenyl)-N-(tetrahydro-2H-pyran-4-yl)bicyclo[2.2.2]octane-1-carboxamide Hydrochloride] | 10 to 100
CNC(=O)C12CCCC(c3ccc(OC/C(=C/F)CN)cc3)(CC1)CC2 [Compound 10, (E)-5-(4-((2-(Aminomethyl)-3-fluoroallyl)oxy)phenyl)-N-methylbicyclo[3.2.2]nonane-1-carboxamide Hydrochloride] | ≤ 10
NC/C(=C\F)COc1ccc(C23CCCC(C(=O)NC4CCOCC4)(CC2)CC3)cc1 [Compound 10.01, (E)-5-(4-((2-(Aminomethyl)-3-fluoroallyl)oxy)phenyl)-N-(tetrahydro-2H-pyran-4-yl)bicyclo[3.2.2]nonane-1-carboxamide Hydrochloride] | ≤ 10
Cc1nnc(C23CCC(c4ccc(OC/C(=C/F)CN)cc4)(CC2)CC3)o1 [Compound 11, (2E)-3-fluoro-2-({4-[4-(5-methyl(1,3,4-oxadiazol-2-yl))bicyclo[2.2.2]octyl]phenoxy}methyl)prop-2-enylamine] | ≤ 10
NC/C(=C\F)COc1ccc(C23CCC(c4nnc(C5CC5)o4)(CC2)CC3)cc1 [Compound 11.01, (E)-2-((4-(4-(5-cyclopropyl-1,3,4-oxadiazol-2-yl)bicyclo[2.2.2]octan-1-yl)phenoxy)methyl)-3-fluoroprop-2-en-1-amine] | ≤ 10
NC/C(=C\F)COc1ccc(C23CCC(c4nnc(C5CCOCC5)o4)(CC2)CC3)cc1 [Compound 11.02, (E)-3-fluoro-2-((4-(4-(5-(tetrahydro-2H-pyran-4-yl)-1,3,4-oxadiazol-2-yl)bicyclo[2.2.2]octan-1-yl)phenoxy)methyl)prop-2-en-1-amine] | ≤ 10

From patent US20200181104A1, “SSAO INHIBITORS AND USES THEREOF” (METACRINE, INC., priority 2018, published 2020)
